This note sets out measurements from patent publication US7135467B2, “HIV integrase inhibitors” (priority 2003, dated 2006).

The assay concerns the target T1, HIV-integrase (recombinant integrase) (Human immunodeficiency virus type 1 group M subtype B, UniProt P12497).
T1 construct: Recombinant integrase (0.26 ng) was incubated with the beads
As to the kind of experiment: HIV-Integrase Inhibition Activity (SPA bead strand-transfer assay). In kind it is biochemical. The following applies: recombinant integrase on biotin labeled substrate DNA/SPA beads, P33 labeled target DNA; read-out: Activity (IC50 against HIV-integrase). How it is done: To evaluate in-vitro activity against HIV-integrase, 5 pmole of biotin labeled substrate DNA was bound to 100 μg of Streptavidin coated PVT SPA beads (Amersham Pharmacia Biotech). Recombinant integrase (0.26 ng) was incubated with the beads for 90 min at 37° C. Unbound enzyme was removed by washing the complex followed by addition of inhibitors and 0.1 fmol of P33 labeled target DNA. The reaction was stopped by adding EDTA to a final concentration of 10 mM. Samples were counted in TopCountNXT (Packard) and the CPM was used as a measure of integration. The reaction condition was as described in A. Engelman and R. Craigie, J. Virol. 69, 5908–5911 (1995). The sequences of substrate and target DNA were described in Nucleic Acid Research 22, 1121–1122 (1994). Activity equal to A refers to a compound having IC50=0.003 to 0.10 μM while B and C denote compounds the following IC50=0.1 to 1.0 μM and IC50≧1.0 μM respectively.
Regarding `Cn1c(N2CCCCS2(=O)=O)nc(C(=O)NCc2ccccc2F)c(O)c1=O` [Compound 28, N-[(2-fluorophenyl)methyl]-1,6-dihydro-5-hydroxy-1-methyl-6-oxo-2-(tetrahydro-1,1-dioxido-2H-1,2-thiazin-2-yl)-4-pyrimidinecarboxamide], the 50% inhibitory concentration (IC50) (usually the concentration that gives 50% inhibition) lay in the range of 100 to 1000 nM.

As to `Cn1c(N2CCCCS2(=O)=O)nc(C(=O)NCc2cccc(C(F)(F)F)c2)c(O)c1=O` [Compound 29, 1,6-dihydro-5-hydroxy-1-methyl-6-oxo-2-(tetrahydro-1,1-dioxido-2H-1,2-thiazin-2-yl)-N-[[3-(trifluoromethyl)phenyl]methyl]-4-pyrimidinecarboxamide], the IC50 is 3 to 100 nM.

As to `Cn1c(N2CCCCS2(=O)=O)nc(C(=O)NCCc2cccc(Cl)c2)c(O)c1=O` [Compound 30, N-[2-(3-chlorophenyl)ethyl]-1,6-dihydro-5-hydroxy-1-methyl-6-oxo-2-(tetrahydro-1,1-dioxido-2H-1,2-thiazin-2-yl)-4-pyrimidinecarboxamide], the IC50 was in the range of 100 to 1000 nM.

Take `Cn1c(N2CCCCS2(=O)=O)nc(C(=O)NCCc2ccccc2)c(O)c1=O` [Compound 31, 1,6-dihydro-5-hydroxy-1-methyl-6-oxo-N-(2-phenylethyl)-2-(tetrahydro-1,1-dioxido-2H-1,2-thiazin-2-yl)-4-pyrimidinecarboxamide]: the IC50 was at least 1000 nM.

Take `Cn1c(N2CCCCS2(=O)=O)nc(C(=O)NCc2ccc(C(F)(F)F)cc2)c(O)c1=O` [Compound 32, 1,6-dihydro-5-hydroxy-1-methyl-6-oxo-2-(tetrahydro-1,1-dioxido-2H-1,2-thiazin-2-yl)-N-[[4-(trifluoromethyl)phenyl]methyl]-4-pyrimidinecarboxamide]: the concentration for half-maximal inhibition (IC50) was 100 to 1000 nM.

For `Cn1c(N2CCCCS2(=O)=O)nc(C(=O)NCc2ccco2)c(O)c1=O` [Compound 33, N-(2-furanylmethyl)-1,6-dihydro-5-hydroxy-1-methyl-6-oxo-2-(tetrahydro-1,1-dioxido-2H-1,2-thiazin-2-yl)-4-pyrimidinecarboxamide], the half-maximal inhibitory concentration (IC50) lay in the range of 100 to 1000 nM.

`Cn1c(N2CCCCS2(=O)=O)nc(C(=O)NCc2cccs2)c(O)c1=O` [Compound 34, 1,6-dihydro-5-hydroxy-1-methyl-6-oxo-2-(tetrahydro-1,1-dioxido-2H-1,2-thiazin-2-yl)-N-(2-thienylmethyl)-4-pyrimidinecarboxamide]: the 50% inhibitory concentration (IC50) was in the range of 100 to 1000 nM.

For `Cn1c(N2CCCCS2(=O)=O)nc(C(=O)NCc2ccccc2)c(O)c1=O` [Compound 35, 1,6-dihydro-5-hydroxy-1-methyl-6-oxo-N-(phenylmethyl)-2-(tetrahydro-1,1-dioxido-2H-1,2-thiazin-2-yl)-4-pyrimidinecarboxamide], the IC50 lay within 100 to 1000 nM.

On to `Cn1c(N2CCCCS2(=O)=O)nc(C(=O)NCc2ccccc2Cl)c(O)c1=O` [Compound 36, N-[(2-chlorophenyl)methyl]-1,6-dihydro-5-hydroxy-1-methyl-6-oxo-2-(tetrahydro-1,1-dioxido-2H-1,2-thiazin-2-yl)-4-pyrimidinecarboxamide], for which the IC50 lay in the range of 100 to 1000 nM.

In the case of `Cc1ccccc1CNC(=O)c1nc(N2CCCCS2(=O)=O)n(C)c(=O)c1O` [Compound 37, 1,6-dihydro-5-hydroxy-1-methyl-N-[(2-methylphenyl)methyl]-6-oxo-2-(tetrahydro-1,1-dioxido-2H-1,2-thiazin-2-yl)-4-pyrimidinecarboxamide], the IC50 is 100 to 1000 nM.

Regarding `COc1ccccc1CCNC(=O)c1nc(N2CCCCS2(=O)=O)n(C)c(=O)c1O` [Compound 38, 1,6-dihydro-5-hydroxy-N-[2-(2-methoxyphenyl)ethyl]-1-methyl-6-oxo-2-(tetrahydro-1,1-dioxido-2H-1,2-thiazin-2-yl)-4-pyrimidinecarboxamide], the concentration for half-maximal inhibition (IC50) was at least 1000 nM.

For `COc1cccc(CCNC(=O)c2nc(N3CCCCS3(=O)=O)n(C)c(=O)c2O)c1` [Compound 39, 1,6-dihydro-5-hydroxy-N-[2-(3-methoxyphenyl)ethyl]-1-methyl-6-oxo-2-(tetrahydro-1,1-dioxido-2H-1,2-thiazin-2-yl)-4-pyrimidinecarboxamide], the IC50 is at least 1000 nM.

Turning to `Cc1ccc(CCNC(=O)c2nc(N3CCCCS3(=O)=O)n(C)c(=O)c2O)cc1` [Compound 40, 1,6-dihydro-5-hydroxy-1-methyl-N-[2-(4-methylphenyl)ethyl]-6-oxo-2-(tetrahydro-1,1-dioxido-2H-1,2-thiazin-2-yl)-4-pyrimidinecarboxamide], the concentration for half-maximal inhibition (IC50) is at least 1000 nM.

For `COc1cc(CNC(=O)c2nc(N3CCCCS3(=O)=O)n(C)c(=O)c2O)cc(OC)c1OC` [Compound 41, 1,6-dihydro-5-hydroxy-1-methyl-6-oxo-2-(tetrahydro-1,1-dioxido-2H-1,2-thiazin-2-yl)-N-[(3,4,5-trimethoxyphenyl)methyl]-4-pyrimidinecarboxamide], the IC50 is at least 1000 nM.

As for `Cn1c(N2CCCCS2(=O)=O)nc(C(=O)NCc2cc(Cl)ccc2Cl)c(O)c1=O` [Compound 42, N-[(2,5-dichlorophenyl)methyl]-1,6-dihydro-5-hydroxy-1-methyl-6-oxo-2-(tetrahydro-1,1-dioxido-2H-1,2-thiazin-2-yl)-4-pyrimidinecarboxamide], the IC50 was 100 to 1000 nM.

Regarding `Cn1c(N2CCCCS2(=O)=O)nc(C(=O)NCc2ccc(Cl)cc2Cl)c(O)c1=O` [Compound 43, N-[(2,4-dichlorophenyl)methyl]-1,6-dihydro-5-hydroxy-1-methyl-6-oxo-2-(tetrahydro-1,1-dioxido-2H-1,2-thiazin-2-yl)-4-pyrimidinecarboxamide], the IC50 was 100 to 1000 nM.

For `Cn1c(N2CCCCS2(=O)=O)nc(C(=O)NCc2cc(C(F)(F)F)cc(C(F)(F)F)c2)c(O)c1=O` [Compound 44, N-[[3,5-bis(trifluoromethyl)phenyl]methyl]-1,6-dihydro-5-hydroxy-1-methyl-6-oxo-2-(tetrahydro-1,1-dioxido-2H-1,2-thiazin-2-yl)-4-pyrimidinecarboxamide], the IC50 is at least 1000 nM.

As to `Cn1c(N2CCCCS2(=O)=O)nc(C(=O)NCc2cc(F)ccc2F)c(O)c1=O` [Compound 45, N-[(2,5-difluorophenyl)methyl]-1,6-dihydro-5-hydroxy-1-methyl-6-oxo-2-(tetrahydro-1,1-dioxido-2H-1,2-thiazin-2-yl)-4-pyrimidinecarboxamide], the 50% inhibitory concentration (IC50) is 100 to 1000 nM.

As to `Cn1c(N2CCCCS2(=O)=O)nc(C(=O)NCc2ccccc2C(F)(F)F)c(O)c1=O` [Compound 46, 1,6-dihydro-5-hydroxy-1-methyl-6-oxo-2-(tetrahydro-1,1-dioxido-2H-1,2-thiazin-2-yl)-N-[[2-(trifluoromethyl)phenyl]methyl]-4-pyrimidinecarboxamide], the IC50 lay within 100 to 1000 nM.

As to `Cn1c(N2CCCCS2(=O)=O)nc(C(=O)NCc2cc(F)cc(F)c2)c(O)c1=O` [Compound 47, N-[(3,5-difluorophenyl)methyl]-1,6-dihydro-5-hydroxy-1-methyl-6-oxo-2-(tetrahydro-1,1-dioxido-2H-1,2-thiazin-2-yl)-4-pyrimidinecarboxamide], the concentration for half-maximal inhibition (IC50) lay within 100 to 1000 nM.

On to `Cn1c(N2CCCCS2(=O)=O)nc(C(=O)NCc2cccc(OC(F)(F)F)c2)c(O)c1=O` [Compound 48, 1,6-dihydro-5-hydroxy-1-methyl-6-oxo-2-(tetrahydro-1,1-dioxido-2H-1,2-thiazin-2-yl)-N-[[3-(trifluoromethoxy)phenyl]methyl]-4-pyrimidinecarboxamide], for which the IC50 is 100 to 1000 nM.

For `Cn1c(N2CCCCS2(=O)=O)nc(C(=O)NCCc2c[nH]c3ccccc23)c(O)c1=O` [Compound 49, 1,6-dihydro-5-hydroxy-N-[2-(1H-indol-3-yl)ethyl]-1-methyl-6-oxo-2-(tetrahydro-1,1-dioxido-2H-1,2-thiazin-2-yl)-4-pyrimidinecarboxamide], the half-maximal inhibitory concentration (IC50) was at least 1000 nM.

Consider `Cc1ncn(-c2nc(C(=O)NCc3ccc(F)cc3)c(O)c(=O)n2C)n1` [Compound 58, N-[(4-fluorophenyl)methyl]-1,6-dihydro-5-hydroxy-1-methyl-2-(3-methyl-1H-1,2,4-triazol-1-yl)-6-oxo-4-pyrimidinecarboxamide], for which the half-maximal inhibitory concentration (IC50) is 100 to 1000 nM.

Consider `Cc1ncnn1-c1nc(C(=O)NCc2ccc(Cl)c(Cl)c2)c(O)c(=O)n1C` [Compound 62, N-[(3,4-dichlorophenyl)methyl]-1,6-dihydro-5-hydroxy-1-methyl-2-(5-methyl-1H-1,2,4-triazol-1-yl)-6-oxo-4-pyrimidinecarboxamide], for which the IC50 was in the range of 3 to 100 nM.

Take `Cn1c(N)nc(C(=O)NCc2ccc(F)cc2)c(O)c1=O` [Compound 63, 2-amino-5-hydroxy-1-methyl-6-oxo-1,6-dihydro-pyrimidine-4-carboxylic acid 4-fluorobenzylamine]: the half-inhibitory concentration (IC50) was in the range of 3 to 100 nM.

In the case of `CNc1nc(C(=O)NCc2ccc(F)cc2)c(O)c(=O)n1C` [Compound 64, 5-Hydroxy-1-methyl-2-methylamino-6-oxo-1,6-dihydro-pyrimidine-4-carboxylic acid 4-fluoro-benzylamine], the IC50 lay in the range of 3 to 100 nM.

For `Cn1c(N2CCC(O)CC2)nc(C(=O)NCc2ccc(F)cc2)c(O)c1=O` [Compound 65, N-[(4-fluorophenyl)methyl]-1,6-dihydro-5-hydroxy-2-(4-hydroxy-1-piperidinyl)-1-methyl-6-oxo-4-pyrimidinecarboxamide], the IC50 fell in the range of 3 to 100 nM.

As to `Cc1cc(CNC(=O)c2nc(N3CCC(O)CC3)n(C)c(=O)c2O)ccc1F` [Compound 66, N-[(4-fluoro-3-methylphenyl)methyl]-1,6-dihydro-5-hydroxy-2-(4-hydroxy-1-piperidinyl)-1-methyl-6-oxo-4-pyrimidinecarboxamide], the IC50 was 3 to 100 nM.
